Test results taken from patent US7291621B2, “Substituted biaryl amides C5a receptor modulators” (Neurogen Corporation, priority 2002, dated 2007).
Where two headings read alike, the source gives them in different places.

Target: T1, C5a receptor (Homo sapiens, UniProt P21730)
T1 construct: endogenous in cells; host or cells: U937 cells differentiated with 1 mM dibutyryl cAMP
T1 sequence (P21730 1-350): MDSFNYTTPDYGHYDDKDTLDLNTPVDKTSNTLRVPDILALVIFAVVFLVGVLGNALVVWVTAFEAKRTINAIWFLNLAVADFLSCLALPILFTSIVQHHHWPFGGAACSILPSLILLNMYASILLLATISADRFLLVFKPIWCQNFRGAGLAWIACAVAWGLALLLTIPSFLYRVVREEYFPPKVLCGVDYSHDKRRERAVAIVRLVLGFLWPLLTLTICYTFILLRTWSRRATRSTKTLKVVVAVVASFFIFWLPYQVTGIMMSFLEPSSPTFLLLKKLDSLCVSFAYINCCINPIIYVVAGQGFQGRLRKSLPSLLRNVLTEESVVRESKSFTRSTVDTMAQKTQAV
Experiment: standard assay of C5a receptor mediated calcium mobilization
Format: cell-based
Conditions: asterisk = tested in C5a receptor mediated calcium mobilization assay, read-out: Ca2+ Mob.
Procedure, shortened: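 U937 cells differentiated 48 hrs with 1 mM dibutyryl cAMP, loaded with Fluo-3 (10 μg/mL) and read by FLIPR fluorescence (ex 480/em 530). For antagonism, cells preincubated 1 h with 1 μM compound before 0.3 nM human recombinant C5a; activity scored as fold decrease in response versus C5a alone.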

| Ki (Table I) | Ki (Table III) | Compound |
| --- | --- | --- |
| < 1 µM | – | O=C(c1ccccc1-c1ccc(C(F)(F)F)cc1)N(Cc1ccccc1)Cc1ccccc1 [compound 42, N,N-dibenzyl-4′-(trifluoromethyl)-1,1′-biphenyl-2-carboxamide] |
| < 1 µM | – | O=C(c1ccccc1-c1cccc(Cl)c1)N(Cc1ccccc1)Cc1ccccc1 [compound 49, N,N-dibenzyl-3′-chloro-1,1′-biphenyl-2-carboxamide] |
| < 1 µM | – | O=C(c1ccccc1-c1cccc(Cl)c1Cl)N(Cc1ccccc1)Cc1ccccc1 [compound 51, N,N-dibenzyl-2′,3′-dichloro-1,1′-biphenyl-2-carboxamide] |
| < 1 µM | – | O=C(c1cc(Cl)ccc1-c1ccccc1)N(Cc1ccccc1)C1Cc2ccccc2C1 [compound 117, N-benzyl-4-chloro-N-(indan-2-yl)-1,1′-biphenyl-2-carboxamide] |
| < 1 µM | – | COc1cccc(CN(CCc2ccccc2)C(=O)c2cc(Cl)ccc2-c2ccccc2)c1 [compound 145, 4-chloro-N-(3-methoxybenzyl)-N-(2-phenylethyl)-1,1′-biphenyl-2-carboxamide] |
| < 1 µM | – | COc1ccc(-c2ccccc2C(=O)N(Cc2ccccc2)Cc2ccccc2)cc1OC [compound 46, N,N-dibenzyl-3′,4 ′-dimethoxy-1,1′-biphenyl-2-carboxamide] |

Further lines, the molecule ahead of its results:

| Compound | Ki (Table I) | Ki (Table III) |
| --- | --- | --- |
| Cc1cccc(-c2ccccc2)c1C(=O)N(Cc1ccccc1F)C1Cc2ccccc2C1 [compound 123, N-(indan-2-yl)-N-(2-fluorobenzyl)-3-methyl-1,1′-biphenyl-2-carboxamide] | < 1 µM | – |
| O=C(c1c(-c2ccccc2)ccc2ccccc12)N(Cc1ccccc1F)C1Cc2ccccc2C1 [compound 239, 2-Phenyl-naphthalene-1-carboxylic acid (2-fluoro-benzyl)-indan-2-yl-amide] | – | < 1 µM |
| COc1ccc2c(c1)CC(N(Cc1ccccc1)C(=O)c1ccccc1-c1ccccc1)C2 (stereo not drawn) [compound 71, N-benzyl-N-(5-methoxy-indan-2-yl)-1,1′-biphenyl-2-carboxamide] | < 1 µM | – |
| COc1cccc(-c2ccccc2C(=O)N(Cc2ccc3c(c2)OCO3)C2Cc3ccccc3C2)c1 [compound 64, N-(1,3-benzodioxol-5-ylmethyl)-N-(indan-2-yl)-3′-methoxy-1,1′-biphenyl-2-carboxamide] | < 1 µM | – |
| O=C(c1ccccc1-c1ccccc1)N(Cc1ccccc1F)C1Cc2ccccc2C1 [compound 78, N-(indan-2-yl)-N-(2-fluorobenzyl)-1,1′-biphenyl-2-carboxamide] | < 1 µM | – |
| O=C(c1ccccc1-c1ccccc1)N(Cc1ccc(F)cc1)C1Cc2ccccc2C1 [compound 76, N-(indan-2-yl)-N-(4-fluorobenzyl)-1,1′-biphenyl-2-carboxamide] | < 1 µM | – |
| COc1ccc(-c2ccccc2)c(C(=O)N(Cc2ccc(C)cc2)C2Cc3ccccc3C2)c1 [compound 107, N-(indan-2-yl)-4-methoxy-N-(4-methylbenzyl)-1,1′-biphenyl-2-carboxamide] | < 1 µM | – |
| Cc1cccc(CN(C(=O)c2c(C)cccc2-c2ccccc2)C2Cc3ccccc3C2)c1 [compound 121, N-(indan-2-yl)-3-methyl-N-(3-methylbenzyl)-1,1′-biphenyl-2-carboxamide] | < 1 µM | – |
| Cc1ccc(-c2ccccc2C(=O)N(Cc2ccc(F)cc2)C2Cc3ccccc3C2)cc1 [compound 91, N-(indan-2-yl)-N-(4-fluorobenzyl)-4′-methyl-1,1′-biphenyl-2-carboxamide] | < 1 µM | – |
| Cc1cccc(CN(C(=O)c2ccccc2-c2ccccc2F)C2Cc3ccccc3C2)c1 [compound 99, N-(indan-2-yl)-2′-fluoro-N-(3-methylbenzyl)-1,1′-biphenyl-2-carboxamide] | < 1 µM | – |
| COc1ccc2ccccc2c1C(=O)N(Cc1ccc(C)cc1)C1Cc2ccccc2C1 [compound 223, 2-Methoxy-naphtlalene-1-carboxylic acid (4-methyl-benzyl)-indan-2-yl-amide] | – | < 1 µM |
| Cc1ccc(-c2ccccc2C(=O)N(Cc2cccc(F)c2)C2Cc3ccccc3C2)cc1 [compound 95, N-(indan-2-yl)-N-(3-fluorobenzyl)-4′-methyl-1,1′-biphenyl-2-carboxamide] | < 1 µM | – |
